Patent publication US11008555B2 (The Regents of the University of California, priority 2015, dated 2021)

Each compound was assayed on chromosomal GFP (assay: CRISPRi GFP repression assay in E. coli). Conditions: ligand dose response on arC9:231, SOB media, normalized to vector control.
Assay type: cell-based, Escherichia coli MG1655
Excerpt: Escherichia coli MG1655, which have chromosomally integrated constitutive GFP and RFP expression, were used for in vivo screening, fluorescence measurements, and transformation assays. Cell transformation, plasmid maintenance, and verification of transformation were done as previously described using AmpR and CmR as selectable markers. EZ-rich defined growth medium (EZ-RDM, Teknoka) was used for in vivo fluorescence assays unless otherwise noted. Super optimal broth (S.O.B) medium was used for library outgrowth and screening. The arC9 ligands used (4-hydroxytamoxifen (4-HT), nafoxidine, beta-estradiol, and diethylstilbestrol) were all ordered from Sigma and resuspended in dimethyl sulfoxide (DMSO).
For individual PDZ-construct testing, colonies were cultured from plates, PDZ-dCas9 plasmid DNA recovered, separated from the RFP guide plasmid (pgRNA-bacteria Addgene ID: 44251) via restriction digestion with BsaI and co-transformed with a guide plasmid to repress chromosomal GFP. GFP repression for each construct was then tested in triplicate in a 96-well microplate reader (Tecan M1000) at 37° C. PDZ clones were grown with appropriate antibiotics, 0.2 nM aTc, dCas9, and inducer. OD600 nm absorbance was measured for each well. GFP signal was measured, normalized for OD600 nm and compared when the cultures were approaching saturation (80% of the maximum OD600 nm) The arC9 construct was treated and assayed in the same fashion as above with induction using […]. Fold changes for the effect of different ligands were calculated by normalizing the GFP/OD600 of the arC9 construct to that of a vector control and dividing the fluorescent values without ligand by the fluorescent values with ligand treatment. For single cell analysis of arC9, cells were grown for ˜6 hours with antibiotics and inducer, washed with PBS, and assayed for GFP fluorescence using a Sony SH800 cell sorter.

Row | Compound | effect of ligand on arC9:231 CRISPRi-based GFP repression
1 | 4-hydroxytamoxifen [4-HT] | increased
2 | C[C@]12CC[C@@H]3c4ccc(O)cc4CC[C@H]3[C@@H]1CC[C@@H]2O [beta-estradiol] | increased only with ligands that encourage the ER-LBD to enter an antagonist conformation
3 | CC/C(=C(/CC)c1ccc(O)cc1)c1ccc(O)cc1 [diethylstilbestrol] | increased only with ligands that encourage the ER-LBD to enter an antagonist conformation
4 | COc1ccc2c(c1)CCC(c1ccccc1)=C2c1ccc(OCCN2CCCC2)cc1 [nafoxidine] | increased
